Measurements as given in US20030216361A1, “Therapeutic compositions effective against gram positive bacteria” (priority 2000, published 2003).
In brackets after ≈: the same amount, converted by molar mass. Read-outs that look alike come from different tables or passages of the source.

Legend:
[1] = tested on: Bacillus subtilis Presque Isle 620; experiment: Effect of pH on broth macrodilution MICs; assay type: cell-based
B. licheniformis = experiment: Broth macrodilution MIC and MBC, clinical isolates; conditions: clinical isolate, 1 strain
[2] = tested on: S. epidermidis Presque Isle 4653; experiment: Broth macrodilution MIC and MBC, reference strains; conditions: Staphylococcus epidermidis
[3] = tested on: Escherichia coli ATCC 25922; experiment: Disk diffusion susceptibility testing
[4] = tested on: Corynebacterium hoagi ATCC 7005; experiment: Broth macrodilution MIC and MBC, reference strains; conditions: ATCC7005
[5] = tested on: Candida albicans ATCC 90028; experiment: Disk diffusion susceptibility testing
[6] = tested on: Staphylococcus aureus ATCC 29213; experiment: Disk diffusion susceptibility testing
[7] = tested on: Enterococcus faecalis ATCC 29212; experiment: Disk diffusion susceptibility testing
[8] = tested on: Enterococcus faecalis 29212; experiment: Time-kill studies; assay type: cell-based; conditions: E. faecalis
Description: (§1) This experiment illustrates a study of the time required (time-kill studies) for anti-microbial action of 3β-acetoxy-17β-(L-prolyl) amino-5α-androstane with certain gram positive bacteria.
(§2) Overnight cultures of Staphylococcus aureus 29213, Enterococcus faecalis 29212 and S. pneumoniae 6303 in MHII broth were inoculated into the same medium containing multiples of the broth macrodilution MIC of 3β-acetoxy-17β-(L-prolyl) amino-5α-androstane, or an equivalent volume of MeOH. Cultures were shaken at 37° C., and aliquots were aseptically removed at various times for dilution plating. Standard errors of the means were calculated from at least two experiments. The detection limit in these experiments was 10 CFU/ml.

[9] = tested on: Staphylococcus aureus 29213; experiment: Time-kill studies; assay type: cell-based; conditions: S. aureus
Description: as §1, §2

[10] = tested on: Staphylococcus epidermidis Presque Isle 4653; experiment: Disk diffusion susceptibility testing
[11] = tested on: Vancomycin-resistant Enterococcus spp.; experiment: Broth macrodilution MIC and MBC, clinical isolates
[12] = tested on: Pseudomonas aeruginosa Presque Isle 99; experiment: Disk diffusion susceptibility testing
[13] = tested on: Bacillus subtilis Presque Isle 620; experiment: Broth macrodilution MIC and MBC, reference strains
[14] = tested on: Proteus vulgaris Presque Isle 365; experiment: Disk diffusion susceptibility testing
[15] = tested on: Arcanobacterium haemolyticum; experiment: Broth macrodilution MIC and MBC, clinical isolates; conditions: clinical isolate, 1 strain
[16] = tested on: Corynebacterium diphtheriae, clinical isolate; experiment: Effect of pH on broth macrodilution MICs; assay type: cell-based
[17] = tested on: Penicillin-resistant Streptococcus pneumoniae; experiment: Broth macrodilution MIC and MBC, clinical isolates
[18] = tested on: Enterococcus faecalis ATCC 29212; experiment: Broth macrodilution MIC and MBC, reference strains; conditions: ATCC29212
[19] = tested on: Bacillus subtilis Presque Isle 620; experiment: Disk diffusion susceptibility testing
Group A Streptococcus = experiment: Broth macrodilution MIC and MBC, clinical isolates
N. farcinica = experiment: Broth macrodilution MIC and MBC, clinical isolates; conditions: clinical isolate, 1 strain
Gordona bronchialis = experiment: Broth macrodilution MIC and MBC, clinical isolates; conditions: clinical isolate, 1 strain
[20] = tested on: Vancomycin-resistant Enterococcus faecalis, clinical isolate; experiment: Effect of pH on broth macrodilution MICs; assay type: cell-based
S. saprophyticus = experiment: Broth macrodilution MIC and MBC, clinical isolates; conditions: 3 strains
[21] = pH 6, range of 3 determinations
[22] = pH 7, range of 3 determinations
[23] = pH 8, range of 3 determinations

**Q.** For `CC(=O)O[C@H]1CC[C@@]2(C)[C@@H](CC[C@@H]3[C@@H]2CC[C@]2(C)[C@@H](NC(=O)[C@@H]4CCCN4)CC[C@@H]32)C1`, which MIC Range [1, 21] is on record?
**A.** 8 µg/mL (≈ 18.6 µM)

**Q.** What about the MIC Range [1, 22] of the same compound?
**A.** 4 to 8 µg/mL

**Q.** And the MIC Range [1, 23]?
**A.** 4 to 8 µg/mL

**Q.** And the “MBC Range” value (B. licheniformis)?
**A.** >64 µg/mL

**Q.** And the “MIC Range” value (B. licheniformis)?
**A.** 32 µg/mL (≈ 74.3 µM)

**Q.** And the MBC [2]?
**A.** 32 µg/mL (≈ 74.3 µM)

**Q.** What about the MIC [2] of the same compound?
**A.** 8 µg/mL (≈ 18.6 µM)

**Q.** And the MIC [3]?
**A.** >100 μg/disk

**Q.** And the MBC [4]?
**A.** 32 µg/mL (≈ 74.3 µM)

**Q.** What about the MIC [4] of the same compound?
**A.** 8 µg/mL (≈ 18.6 µM)

**Q.** And the MIC [5]?
**A.** >100 μg/disk

**Q.** What about the MIC [6] of the same compound?
**A.** 12.5-25 μg/disk

**Q.** And the MIC [7]?
**A.** 25-50 μg/disk

**Q.** And the “Killing (time dependence)” value [8]?
**A.** time-dependent

**Q.** What about the “time to 99.9% kill” value ([8]; eight times the MIC) of the same compound?
**A.** 4 h

**Q.** And the “survivors after 24 h” value ([8]; eight times the MIC)?
**A.** no survivors

**Q.** What about the “time to 99.9% kill” value ([8]; four times the MIC) of the same compound?
**A.** 8 h

**Q.** What about the “survivors after 24 h” value ([8]; four times the MIC) of the same compound?
**A.** no survivors

**Q.** What about the “time to 99.9% kill” value ([8]; two times the MIC) of the same compound?
**A.** 8 h

**Q.** And the “Killing (time dependence)” value [9]?
**A.** time-dependent

**Q.** What about the MIC [10] of the same compound?
**A.** 6.25-12.5 μg/disk

**Q.** What about the MIC50 ([11]; Enterococcus) of the same compound?
**A.** 8 µg/mL (≈ 18.6 µM)

**Q.** And the MIC90 ([11]; Enterococcus)?
**A.** 16 µg/mL (≈ 37.2 µM)

**Q.** What about the MBC ([11]; Enterococcus, read-out: MBC 50%) of the same compound?
**A.** 16 µg/mL (≈ 37.2 µM)

**Q.** And the MBC ([11]; Enterococcus, read-out: MBC 90%)?
**A.** > 64 µg/mL

**Q.** And the “MIC Range” value ([11]; clinical isolates, 34 strains)?
**A.** 4 to 16 µg/mL

**Q.** And the “share of strains with MBC/MIC ratios ≦2” value ([11]; vancomycin-resistant Enterococcus spp.)?
**A.** 59%

**Q.** And the MIC [12]?
**A.** >100 μg/disk

**Q.** And the MBC [13]?
**A.** 4 µg/mL (≈ 9.29 µM)

**Q.** And the MIC [13]?
**A.** 4 µg/mL (≈ 9.29 µM)

**Q.** What about the MIC [14] of the same compound?
**A.** >100 μg/disk

**Q.** And the “MBC Range” value [15]?
**A.** 32 µg/mL (≈ 74.3 µM)

**Q.** And the “MIC Range” value [15]?
**A.** 16 µg/mL (≈ 37.2 µM)

**Q.** And the MIC Range [16, 21]?
**A.** 16 µg/mL (≈ 37.2 µM)

**Q.** What about the MIC Range [16, 22] of the same compound?
**A.** 4 to 8 µg/mL

**Q.** What about the MIC Range [16, 23] of the same compound?
**A.** 2 to 4 µg/mL

**Q.** And the MIC50 ([17]; Streptococcus pneumoniae)?
**A.** 16 µg/mL (≈ 37.2 µM)

**Q.** And the MIC90 ([17]; Streptococcus pneumoniae)?
**A.** 16 µg/mL (≈ 37.2 µM)

**Q.** And the MBC ([17]; Streptococcus pneumoniae, read-out: MBC 50%)?
**A.** 16 µg/mL (≈ 37.2 µM)

**Q.** What about the MBC ([17]; Streptococcus pneumoniae, read-out: MBC 90%) of the same compound?
**A.** 32 µg/mL (≈ 74.3 µM)

**Q.** And the “MIC Range” value ([17]; clinical isolates, 35 strains)?
**A.** 8 to 32 µg/mL

**Q.** What about the “share of strains with MBC/MIC ratios ≦2” value ([17]; penicillin-resistant S. pneumoniae) of the same compound?
**A.** 88%

**Q.** What about the MBC [18] of the same compound?
**A.** 32 µg/mL (≈ 74.3 µM)

**Q.** And the MIC [18]?
**A.** 16 µg/mL (≈ 37.2 µM)

**Q.** And the MIC [19]?
**A.** 3.12-6.25 μg/disk

**Q.** And the “share of strains with MBC/MIC ratios ≦2” value (Group A Streptococcus; Group A Streptococcus)?
**A.** 89%

**Q.** And the MIC50 (Group A Streptococcus; Streptococcus)?
**A.** 8 µg/mL (≈ 18.6 µM)

**Q.** And the MIC90 (Group A Streptococcus; Streptococcus)?
**A.** 16 µg/mL (≈ 37.2 µM)

**Q.** And the MBC (Group A Streptococcus; Streptococcus, read-out: MBC 50%)?
**A.** 16 µg/mL (≈ 37.2 µM)

**Q.** What about the MBC (Group A Streptococcus; Streptococcus, read-out: MBC 90%) of the same compound?
**A.** 32 µg/mL (≈ 74.3 µM)

**Q.** What about the “MBC Range” value (Group A Streptococcus; clinical isolates, 18 strains) of the same compound?
**A.** 8 to 32 µg/mL

**Q.** And the “MIC Range” value (Group A Streptococcus; clinical isolates, 18 strains)?
**A.** 8 to 16 µg/mL

**Q.** What about the “MBC Range” value (N. farcinica) of the same compound?
**A.** 64 µg/mL (≈ 149 µM)

**Q.** And the “MIC Range” value (N. farcinica)?
**A.** 16 µg/mL (≈ 37.2 µM)

**Q.** What about the “MBC Range” value (Gordona bronchialis) of the same compound?
**A.** 8 µg/mL (≈ 18.6 µM)

**Q.** What about the “MIC Range” value (Gordona bronchialis) of the same compound?
**A.** 8 µg/mL (≈ 18.6 µM)

**Q.** And the MIC Range [20, 21]?
**A.** 32 µg/mL (≈ 74.3 µM)

**Q.** What about the MIC Range [20, 22] of the same compound?
**A.** 8 µg/mL (≈ 18.6 µM)

**Q.** And the MIC Range [20, 23]?
**A.** 4 to 8 µg/mL

**Q.** What about the “MBC Range” value (S. saprophyticus) of the same compound?
**A.** 8 µg/mL (≈ 18.6 µM)

**Q.** What about the “MIC Range” value (S. saprophyticus) of the same compound?
**A.** 4 to 8 µg/mL
